Reference: patent publication US20240174679A1, “HETEROAROYL AMIDES AS LRRK2 INHIBITORS, PHARMACEUTICAL COMPOSITIONS, AND USES THEREOF” (MERCK SHARP & DOHME LLC, priority 2021, published 2024)

Each compound was assayed against GST tagged truncated human mutant G2019S LRRK2 (Homo sapiens (Human), UniProt Q5S007, G2019S) (assay: LRRK2 Km ATP LanthaScreen Assay). Conditions: 134 μM ATP (Km ATP), LRRKtide substrate, negative log of mean IC50 (molar).
Type: biochemical
Summary of the method: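 Truncated GST-tagged G2019S LRRK2 (1.25 nM enzyme solution) was preincubated with compound for 15 min at rt, then reacted for 90 min with fluorescein-LRRKtide and 134 μM ATP (Km) in Tris pH 8.5/MgCl2 buffer. After an EDTA stop, TR-FRET used a Tb anti-pERM antibody (520/495 nm ratio). IC50 came from a 4-parameter fit and is reported as pIC50, mean of several runs.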

Chain of GST tagged truncated human mutant G2019S LRRK2 (Q5S007 970-2527 G2019S): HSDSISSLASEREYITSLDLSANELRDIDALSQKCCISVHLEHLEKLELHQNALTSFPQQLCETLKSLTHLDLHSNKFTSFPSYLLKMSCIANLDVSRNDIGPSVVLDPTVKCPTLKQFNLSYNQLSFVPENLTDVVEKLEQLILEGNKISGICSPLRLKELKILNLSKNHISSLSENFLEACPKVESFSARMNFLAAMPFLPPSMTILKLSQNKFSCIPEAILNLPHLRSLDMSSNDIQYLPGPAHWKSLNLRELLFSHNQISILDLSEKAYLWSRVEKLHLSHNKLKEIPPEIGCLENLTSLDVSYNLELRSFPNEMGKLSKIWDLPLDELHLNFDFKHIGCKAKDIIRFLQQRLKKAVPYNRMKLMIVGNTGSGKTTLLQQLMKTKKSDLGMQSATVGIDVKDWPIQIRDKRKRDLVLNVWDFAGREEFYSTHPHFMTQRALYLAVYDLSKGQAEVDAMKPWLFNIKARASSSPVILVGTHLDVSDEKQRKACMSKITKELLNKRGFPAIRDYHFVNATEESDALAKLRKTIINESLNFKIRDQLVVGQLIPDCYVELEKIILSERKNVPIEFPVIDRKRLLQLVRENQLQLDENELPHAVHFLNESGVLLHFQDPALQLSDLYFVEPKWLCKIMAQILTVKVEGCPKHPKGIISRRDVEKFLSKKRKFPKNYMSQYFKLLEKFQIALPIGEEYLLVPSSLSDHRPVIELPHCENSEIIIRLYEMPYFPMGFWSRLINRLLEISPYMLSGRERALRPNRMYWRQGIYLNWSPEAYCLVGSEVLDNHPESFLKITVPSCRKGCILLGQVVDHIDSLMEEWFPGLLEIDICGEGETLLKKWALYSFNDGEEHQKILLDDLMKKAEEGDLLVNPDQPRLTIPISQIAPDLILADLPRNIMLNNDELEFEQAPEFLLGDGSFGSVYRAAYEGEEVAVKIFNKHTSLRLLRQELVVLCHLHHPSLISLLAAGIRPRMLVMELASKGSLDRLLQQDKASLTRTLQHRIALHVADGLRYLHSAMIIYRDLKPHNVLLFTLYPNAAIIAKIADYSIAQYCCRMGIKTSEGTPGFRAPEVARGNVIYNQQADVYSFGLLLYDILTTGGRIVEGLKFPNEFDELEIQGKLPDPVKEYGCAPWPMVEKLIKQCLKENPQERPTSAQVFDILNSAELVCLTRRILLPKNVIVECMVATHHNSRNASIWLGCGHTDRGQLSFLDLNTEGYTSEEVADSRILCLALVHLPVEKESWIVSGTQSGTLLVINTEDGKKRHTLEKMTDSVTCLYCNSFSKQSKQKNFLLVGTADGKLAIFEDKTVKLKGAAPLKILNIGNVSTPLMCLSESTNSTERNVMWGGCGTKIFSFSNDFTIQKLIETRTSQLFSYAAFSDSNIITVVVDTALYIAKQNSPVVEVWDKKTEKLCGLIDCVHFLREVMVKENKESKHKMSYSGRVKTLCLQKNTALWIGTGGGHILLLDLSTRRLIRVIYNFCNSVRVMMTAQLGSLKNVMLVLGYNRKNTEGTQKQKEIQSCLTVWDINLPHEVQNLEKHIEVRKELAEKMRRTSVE

| Structure (SMILES) | LRRK2 pIC50 |
| --- | --- |
| O=C(Nc1cn(CC2CCOCC2)nc1C(F)F)c1csc(-c2cn[nH]c2)n1 [Example 7-7, N-[3-(difluoromethyl)-1-(tetrahydro-2H-pyran-4-ylmethyl)-1H-pyrazol-4-yl]-2-(1H-pyrazol-4-yl)-1,3-thiazole-4-carboxamide] | 7.72 |
| O=C(Nc1cnn(CC2CCC(F)(F)CC2)c1)c1csc(-c2cn[nH]c2)n1 [Example 7-8, N-{1-[(4,4-difluorocyclohexyl)methyl]-1H-pyrazol-4-yl}-2-(1H-pyrazol-4-yl)-1,3-thiazole-4-carboxamide] | 7.35 |
| O=C(Nc1cn(CCF)nc1C(F)F)c1csc(-c2cn[nH]c2)n1 [Example 7-9, N-[3-(difluoromethyl)-1-(2-fluoroethyl)-1H-pyrazol-4-yl]-2-(1H-pyrazol-4-yl)-1,3-thiazole-4-carboxamide] | 7.75 |
| O=C(Nc1cnn(C2CCOCC2)c1)c1csc(-c2cn[nH]c2)n1 [Example 7-10, 2-(1H-pyrazol-4-yl)-N-[1-(tetrahydro-2H-pyran-4-yl)-1H-pyrazol-4-yl]-1,3-thiazole-4-carboxamide] | 7.37 |
| O=C(Nc1cn(CC2CCC2)nc1C(F)F)c1csc(-c2cn[nH]c2)n1 [Example 7-11, N-[1-(cyclobutylmethyl)-3-(difluoromethyl)-1H-pyrazol-4-yl]-2-(1H-pyrazol-4-yl)-1,3-thiazole-4-carboxamide] | 7.55 |
| O=C(Nc1cn(CC2CCCO2)nc1C(F)F)c1csc(-c2cn[nH]c2)n1 (stereo not shown) [Example 7-12, N-[3-(difluoromethyl)-1-(tetrahydrofuran-2-ylmethyl)-1H-pyrazol-4-yl]-2-(1H-pyrazol-4-yl)-1,3-thiazole-4-carboxamide] | 7.68 |
| O=C(Nc1cnn(CC2CCCO2)c1)c1csc(-c2cn[nH]c2)n1 (stereo not shown) [Example 7-13, 2-(1H-pyrazol-4-yl)-N-[1-(tetrahydrofuran-2-ylmethyl)-1H-pyrazol-4-yl]-1,3-thiazole-4-carboxamide] | 6.84 |
| COc1nn(CC2CC2)cc1NC(=O)c1csc(-c2cn[nH]c2)n1 [Example 7-14, N-[1-(cyclopropylmethyl)-3-methoxy-1H-pyrazol-4-yl]-2-(1H-pyrazol-4-yl)-1,3-thiazole-4-carboxamide] | 7.92 |
| O=C(Nc1cnn(CCN2CCNCC2)c1)c1csc(-c2cn[nH]c2)n1 [Example 7-15, N-{1-[2-(piperazin-1-yl)ethyl]-1H-pyrazol-4-yl}-2-(1H-pyrazol-4-yl)-1,3-thiazole-4-carboxamide] | 6.36 |
| COc1nn(CC2CCOCC2)cc1NC(=O)c1csc(-c2cn[nH]c2)n1 [Example 7-16, N-[3-methoxy-1-(tetrahydro-2H-pyran-4-ylmethyl)-1H-pyrazol-4-yl]-2-(1H-pyrazol-4-yl)-1,3-thiazole-4-carboxamide] | 7.25 |
| O=C(Nc1cnn(Cc2ccc(F)cc2)c1)c1csc(-c2cn[nH]c2)n1 [Example 7-17, N-[1-(4-fluorobenzyl)-1H-pyrazol-4-yl]-2-(1H-pyrazol-4-yl)-1,3-thiazole-4-carboxamide] | 7.76 |
| CC(C)n1cc(NC(=O)c2csc(-c3cn[nH]c3)n2)c(C(F)F)n1 [Example 7-18, N-[3-(difluoromethyl)-1-(1-methylethyl)-1H-pyrazol-4-yl]-2-(1H-pyrazol-4-yl)-1,3-thiazole-4-carboxamide] | 7.72 |
| COc1nn(CC2CCC2)cc1NC(=O)c1csc(-c2cn[nH]c2)n1 [Example 7-19, N-[1-(cyclobutylmethyl)-3-methoxy-1H-pyrazol-4-yl]-2-(1H-pyrazol-4-yl)-1,3-thiazole-4-carboxamide] | 7.80 |
| COc1nn(CC(F)F)cc1NC(=O)c1csc(-c2cn[nH]c2)n1 [Example 7-20, N-[1-(2,2-difluoroethyl)-3-methoxy-1H-pyrazol-4-yl]-2-(1H-pyrazol-4-yl)-1,3-thiazole-4-carboxamide] | 7.58 |
| COCCn1cc(NC(=O)c2csc(-c3cn[nH]c3)n2)c(OC)n1 [Example 7-21, N-[3-methoxy-1-(2-methoxyethyl)-1H-pyrazol-4-yl]-2-(1H-pyrazol-4-yl)-1,3-thiazole-4-carboxamide] | 6.57 |
| COCCn1cc(NC(=O)c2csc(-c3cn[nH]c3)n2)cn1 [Example 7-22, N-[1-(2-methoxyethyl)-1H-pyrazol-4-yl]-2-(1H-pyrazol-4-yl)-1,3-thiazole-4-carboxamide] | 7.00 |
| CC(C)Cn1cc(NC(=O)c2csc(-c3cn[nH]c3)n2)c(C(F)F)n1 [Example 7-23, N-[3-(difluoromethyl)-1-(2-methylpropyl)-1H-pyrazol-4-yl]-2-(1H-pyrazol-4-yl)-1,3-thiazole-4-carboxamide] | 7.59 |
| O=C(Nc1cnn(Cc2ccncc2)c1)c1csc(-c2cn[nH]c2)n1 [Example 7-24, 2-(1H-pyrazol-4-yl)-N-[1-(pyridin-4-ylmethyl)-1H-pyrazol-4-yl]-1,3-thiazole-4-carboxamide] | 7.30 |
| COc1nn(CC2(C#N)CC2)cc1NC(=O)c1csc(-c2cn[nH]c2)n1 [Example 7-25, N-{1-[(1-cyanocyclopropyl)methyl]-3-methoxy-1H-pyrazol-4-yl}-2-(1H-pyrazol-4-yl)-1,3-thiazole-4-carboxamide] | 7.70 |
| O=C(Nc1cnn(C[C@H]2CCNC2)c1)c1csc(-c2cn[nH]c2)n1 [Example 7-26, 2-(1H-pyrazol-4-yl)-N-(1-{[(3S)-pyrrolidin-3-yl]methyl}-1H-pyrazol-4-yl)-1,3-thiazole-4-carboxamide] | 6.84 |
| N#CCn1cc(NC(=O)c2csc(-c3cn[nH]c3)n2)c(C(F)F)n1 [Example 7-27, N-[1-(cyanomethyl)-3-(difluoromethyl)-1H-pyrazol-4-yl]-2-(1H-pyrazol-4-yl)-1,3-thiazole-4-carboxamide] | 7.50 |
| N#CC1(Cn2cc(NC(=O)c3csc(-c4cn[nH]c4)n3)cn2)CCNCC1 [Example 7-28, N-{1-[(4-cyanopiperidin-4-yl)methyl]-1H-pyrazol-4-yl}-2-(1H-pyrazol-4-yl)-1,3-thiazole-4-carboxamide] | 6.71 |
| O=C(Nc1cn(CC2CC2(F)F)nc1C(F)F)c1csc(-c2cn[nH]c2)n1 (stereo not shown) [Example 7-29, N-{1-[(2,2-difluorocyclopropyl)methyl]-3-(difluoromethyl)-1H-pyrazol-4-yl}-2-(1H-pyrazol-4-yl)-1,3-thiazole-4-carboxamide] | 7.78 |
| O=C(Nc1cnn(C[C@@H]2CCNC2)c1)c1csc(-c2cn[nH]c2)n1 [Example 7-30, 2-(1H-pyrazol-4-yl)-N-(1-{[(3R)-pyrrolidin-3-yl]methyl}-1H-pyrazol-4-yl)-1,3-thiazole-4-carboxamide] | 6.25 |
| CC(C#N)n1cc(NC(=O)c2csc(-c3cn[nH]c3)n2)c(C(F)F)n1 (stereo not shown) [Example 7-31, N-[1-(1-cyanoethyl)-3-(difluoromethyl)-1H-pyrazol-4-yl]-2-(1H-pyrazol-4-yl)-1,3-thiazole-4-carboxamide] | 7.40 |
